Test results taken from patent US9486506B2 (Novo Nordisk A/S, priority 2011, dated 2016).
Numbered stars: 1 amine (or outer) side, 2 acyl side, 3 side chain; on linkers, the order of the positions; unused ones are H or OH. Side chains are listed from the residue outwards. Peptide text beside a SMILES is read from it. * marks the point of attachment. C18 diacid = O=C(O)CCCCCCCCCCCCCCCCC(=O)*; C16 diacid = O=C(O)CCCCCCCCCCCCCCC(=O)*; γGlu = O=C(O)[C@H](CCC(=O)[*:2])N[*:1]; AEEA = NCCOCCOCC(=O)O

Experiments:
[1] = target: T1, glucagon receptor (Homo sapiens, UniProt P47871); test: Assay (I) Glucagon activity (cAMP biosensor, FLIPR); assay type: cell-based
T1 construct: expressed in transfected cells

[2] = Assay (X) Chemical stability assessment by RP-UPLC; assay type: physicochemical; details: pH 8.15, 14 days at 37° C. vs 5° C., 333 μM

T1 sequence (P47871 26-477): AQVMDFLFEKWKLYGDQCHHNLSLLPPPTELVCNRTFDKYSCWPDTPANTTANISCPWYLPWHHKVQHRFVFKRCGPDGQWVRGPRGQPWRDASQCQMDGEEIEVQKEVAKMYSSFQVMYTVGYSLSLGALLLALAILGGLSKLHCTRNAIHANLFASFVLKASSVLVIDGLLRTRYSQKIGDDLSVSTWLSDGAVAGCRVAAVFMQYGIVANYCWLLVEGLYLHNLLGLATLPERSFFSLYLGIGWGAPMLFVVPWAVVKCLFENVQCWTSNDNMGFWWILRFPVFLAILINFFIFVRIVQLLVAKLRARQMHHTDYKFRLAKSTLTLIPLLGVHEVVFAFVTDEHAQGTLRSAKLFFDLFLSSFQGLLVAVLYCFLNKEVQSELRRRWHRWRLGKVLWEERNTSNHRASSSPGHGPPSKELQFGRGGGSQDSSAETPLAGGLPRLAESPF

Row | SMILES | EC50 [1] [nM] | Chemical stability [Purity loss/14 days 37 C.] [2] [%]
1 | CC(C)C[C@H](NC(=O)[C@H](CC(C)C)NC(=O)[C@H](Cc1c[nH]c2ccccc12)NC(=O)[C@H](CCCCNC(=O)CC[C@H](NC(=O)CC[C@H](NC(=O)COCCOCCNC(=O)COCCOCCNC(=O)CC[C@H](NC(=O)CCCCCCCCCCCCCCCCC(=O)O)C(=O)O)C(=O)O)C(=O)O)NC(=O)[C@@H](NC(=O)[C@H](Cc1ccccc1)NC(=O)[C@H](CC(=O)O)NC(=O)[C@H](CCC(N)=O)NC(=O)[C@H](C)NC(=O)[C@H](CCCNC(=N)N)NC(=O)[C@H](CCCNC(=N)N)NC(=O)[C@H](CC(C)C)NC(=O)[C@H](CC(=O)O)NC(=O)[C@H](CC(C)C)NC(=O)[C@H](Cc1ccc(O)cc1)NC(=O)[C@H](CCCNC(=N)N)NC(=O)[C@H](CO)NC(=O)[C@H](Cc1ccc(O)cc1)NC(=O)[C@H](CC(=O)O)NC(=O)[C@H](CO)NC(=O)[C@@H](NC(=O)[C@H](Cc1ccccc1)NC(=O)[C@@H](NC(=O)CNC(=O)[C@H](CCC(N)=O)NC(=O)[C@H](CO)NC(=O)[C@@H](N)Cc1c[nH]cn1)[C@@H](C)O)[C@@H](C)O)C(C)C)C(=O)N[C@@H](C)C(=O)N[C@H](C(=O)O)[C@@H](C)O [Example 87, N^ε24-[(4S)-4-carboxy-4-[[(4S)-4-carboxy-4-[[2-[2-[2-[[2-[2-[2-[[(4S)-4-carboxy-4-(17-carboxyheptadecanoylamino)butanoyl]amino]ethoxy]ethoxy]acetyl]amino]ethoxy]ethoxy]acetyl]amino]butanoyl]amino]butanoyl]-[Arg12,Leu16,Lys24,Leu27,Ala28]-Glucagon] (H-HSQGTFTSDYSRYLDLRRAQDFVK([γGlu-γGlu-AEEA-AEEA-γGlu-C18 diacid])WLLAT-OH) | 0.253 | 5.8
2 | CC(C)C[C@H](NC(=O)[C@H](CC(C)C)NC(=O)[C@H](Cc1c[nH]c2ccccc12)NC(=O)[C@H](CCCCNC(=O)CC[C@H](NC(=O)CC[C@H](NC(=O)COCCOCCNC(=O)COCCOCCNC(=O)CC[C@H](NC(=O)CCCCCCCCCCCCCCCCC(=O)O)C(=O)O)C(=O)O)C(=O)O)NC(=O)[C@@H](NC(=O)[C@H](Cc1ccccc1)NC(=O)[C@H](CC(=O)O)NC(=O)[C@H](CCC(N)=O)NC(=O)[C@H](C)NC(=O)[C@H](CCCNC(=N)N)NC(=O)[C@H](CCCNC(=N)N)NC(=O)[C@H](CC(C)C)NC(=O)[C@H](CC(=O)O)NC(=O)[C@H](CC(C)C)NC(=O)[C@H](Cc1ccc(O)cc1)NC(=O)[C@H](CCCNC(=N)N)NC(=O)[C@H](CO)NC(=O)[C@H](Cc1ccc(O)cc1)NC(=O)[C@H](CC(=O)O)NC(=O)[C@H](CO)NC(=O)[C@@H](NC(=O)[C@H](Cc1ccccc1)NC(=O)[C@@H](NC(=O)CNC(=O)[C@H](CCC(N)=O)NC(=O)[C@H](CO)NC(=O)[C@@H](N)Cc1c[nH]cn1)[C@@H](C)O)[C@@H](C)O)C(C)C)C(=O)NCC(=O)N[C@H](C(=O)O)[C@@H](C)O [Example 88, N^ε24-[(4S)-4-carboxy-4-[[(4S)-4-carboxy-4-[[2-[2-[2-[[2-[2-[2-[[(4S)-4-carboxy-4-(17-carboxyheptadecanoylamino)butanoyl]amino]ethoxy]ethoxy]acetyl]amino]ethoxy]ethoxy]acetyl]amino]butanoyl]amino]butanoyl]-[Arg12,Leu16,Lys24,Leu27,Gly28]-Glucagon] (H-HSQGTFTSDYSRYLDLRRAQDFVK([γGlu-γGlu-AEEA-AEEA-γGlu-C18 diacid])WLLGT-OH) | 0.47 | 4.7
3 | CC(C)C[C@H](NC(=O)[C@H](CC(C)C)NC(=O)[C@H](Cc1c[nH]c2ccccc12)NC(=O)[C@H](CCCCNC(=O)CC[C@H](NC(=O)CC[C@H](NC(=O)COCCOCCNC(=O)COCCOCCNC(=O)CC[C@H](NC(=O)CCCCCCCCCCCCCCC(=O)O)C(=O)O)C(=O)O)C(=O)O)NC(=O)[C@@H](NC(=O)[C@H](Cc1ccccc1)NC(=O)[C@H](CC(=O)O)NC(=O)[C@H](CCC(N)=O)NC(=O)[C@H](C)NC(=O)[C@H](CCCNC(=N)N)NC(=O)[C@H](CCCNC(=N)N)NC(=O)[C@H](CC(C)C)NC(=O)[C@H](CC(=O)O)NC(=O)[C@H](CC(C)C)NC(=O)[C@H](Cc1ccc(O)cc1)NC(=O)[C@H](CCCNC(=N)N)NC(=O)[C@H](CO)NC(=O)[C@H](Cc1ccc(O)cc1)NC(=O)[C@H](CC(=O)O)NC(=O)[C@H](CO)NC(=O)[C@@H](NC(=O)[C@H](Cc1ccccc1)NC(=O)[C@@H](NC(=O)CNC(=O)[C@H](CCC(N)=O)NC(=O)[C@H](CO)NC(=O)[C@@H](N)Cc1c[nH]cn1)[C@@H](C)O)[C@@H](C)O)C(C)C)C(=O)N[C@@H](C)C(=O)N[C@H](C(=O)O)[C@@H](C)O [Example 89, N^ε24-[(4S)-4-carboxy-4-[[(4S)-4-carboxy-4-[[2-[2-[2-[[2-[2-[2-[[(4S)-4-carboxy-4-(15-carboxypentadecanoylamino)butanoyl]amino]ethoxy]ethoxy]acetyl]amino]ethoxy]ethoxy]acetyl]amino]butanoyl]amino]butanoyl]-[Arg12,Leu16,Lys24,Leu27,Ala28]-Glucagon] (H-HSQGTFTSDYSRYLDLRRAQDFVK([γGlu-γGlu-AEEA-AEEA-γGlu-C16 diacid])WLLAT-OH) | 0.064 | 6.8
4 | CC(C)C[C@H](NC(=O)[C@H](CC(C)C)NC(=O)[C@H](Cc1c[nH]c2ccccc12)NC(=O)[C@H](CCCCNC(=O)CC[C@H](NC(=O)CC[C@H](NC(=O)COCCOCCNC(=O)COCCOCCNC(=O)CC[C@H](NC(=O)CCCCCCCCCCCCCCC(=O)O)C(=O)O)C(=O)O)C(=O)O)NC(=O)[C@@H](NC(=O)[C@H](Cc1ccccc1)NC(=O)[C@H](CC(=O)O)NC(=O)[C@H](CCC(N)=O)NC(=O)[C@H](C)NC(=O)[C@H](CCCNC(=N)N)NC(=O)[C@H](CCCNC(=N)N)NC(=O)[C@H](CC(C)C)NC(=O)[C@H](CC(=O)O)NC(=O)[C@H](CC(C)C)NC(=O)[C@H](Cc1ccc(O)cc1)NC(=O)[C@H](CCCNC(=N)N)NC(=O)[C@H](CO)NC(=O)[C@H](Cc1ccc(O)cc1)NC(=O)[C@H](CC(=O)O)NC(=O)[C@H](CO)NC(=O)[C@@H](NC(=O)[C@H](Cc1ccccc1)NC(=O)[C@@H](NC(=O)CNC(=O)[C@H](CCC(N)=O)NC(=O)[C@H](CO)NC(=O)[C@@H](N)Cc1c[nH]cn1)[C@@H](C)O)[C@@H](C)O)C(C)C)C(=O)NCC(=O)N[C@H](C(=O)O)[C@@H](C)O [Example 90, N^ε24-[(4S)-4-carboxy-4-[[(4S)-4-carboxy-4-[[2-[2-[2-[[2-[2-[2-[[(4S)-4-carboxy-4-(15-carboxypentadecanoylamino)butanoyl]amino]ethoxy]ethoxy]acetyl]amino]ethoxy]ethoxy]acetyl]amino]butanoyl]amino]butanoyl]-[Arg12,Leu16,Lys24,Leu27,Gly28]-Glucagon] (H-HSQGTFTSDYSRYLDLRRAQDFVK([γGlu-γGlu-AEEA-AEEA-γGlu-C16 diacid])WLLGT-OH) | 0.09 | 5.4
